Each block holds one compound with its values, some of them ahead of it.
Assays:
[1] = molecular target: T1, Free fatty acid receptor 1 (Homo sapiens, UniProt O14842); assay: Transactivation of human GPR40 expressed in HEK293 cells at 10 uM after 24 hrs by Elk-Gal4 luciferase reporter assay relative to TAK-875; format: functional, cell-based
[2] = molecular target: T1, Free fatty acid receptor 1; assay: Transactivation of human GPR40 expressed in HEK293 cells after 24 hrs by Elk-Gal4 luciferase reporter assay; format: functional, cell-based
[3] = molecular target: T2, CYP2D6 (Homo sapiens, UniProt P10635); assay: Inhibition of CYP2D6 in human liver microsomes at 5 uM using dextromethorphan as substrate by LC-MS/MS analysis relative to control; format: ADME; settings: probe dextromethorphan
T2 sequence (P10635 whole entry): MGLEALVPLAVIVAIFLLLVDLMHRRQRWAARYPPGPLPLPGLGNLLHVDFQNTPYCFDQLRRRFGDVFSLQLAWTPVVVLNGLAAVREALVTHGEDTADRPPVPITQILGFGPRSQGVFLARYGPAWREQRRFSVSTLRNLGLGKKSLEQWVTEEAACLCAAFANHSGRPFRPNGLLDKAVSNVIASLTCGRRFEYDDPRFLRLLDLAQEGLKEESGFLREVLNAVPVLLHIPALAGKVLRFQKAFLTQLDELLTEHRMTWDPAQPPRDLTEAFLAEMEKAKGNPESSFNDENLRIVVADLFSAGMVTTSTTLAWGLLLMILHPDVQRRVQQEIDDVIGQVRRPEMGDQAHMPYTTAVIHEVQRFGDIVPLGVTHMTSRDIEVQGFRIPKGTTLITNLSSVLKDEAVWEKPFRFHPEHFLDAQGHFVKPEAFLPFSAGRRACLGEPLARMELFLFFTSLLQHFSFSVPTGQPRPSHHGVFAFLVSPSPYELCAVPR

[4] = test system: Mus musculus; assay: Antidiabetic activity in ICR mouse assessed as blood glucose AUC at 50 mg/kg, po administered 1 hr prior to glucose challenge measured after 120 mins post glucose challenge (reference value: 290 +/ 23.5 mg.hr/dl); format: functional, organism-based; set-up: dose 50 mg/kg, time < 2 hr
[5] = test system: Mus musculus; assay: Antidiabetic activity in ICR mouse assessed as blood glucose levels at 50 mg/kg, po administered 1 hr prior to glucose challenge measured at 120 mins post glucose challenge (reference value: 53.7 +/- 9.9 mg/dl); format: functional
[6] = molecular target: CYP3A4 (Homo sapiens, UniProt P08684); assay: Inhibition of CYP3A4 in human liver microsomes at 5 uM using midazolam as substrate by LC-MS/MS analysis relative to control; format: ADME; settings: probe midazolam
Sequence of CYP3A4 (P08684 whole entry): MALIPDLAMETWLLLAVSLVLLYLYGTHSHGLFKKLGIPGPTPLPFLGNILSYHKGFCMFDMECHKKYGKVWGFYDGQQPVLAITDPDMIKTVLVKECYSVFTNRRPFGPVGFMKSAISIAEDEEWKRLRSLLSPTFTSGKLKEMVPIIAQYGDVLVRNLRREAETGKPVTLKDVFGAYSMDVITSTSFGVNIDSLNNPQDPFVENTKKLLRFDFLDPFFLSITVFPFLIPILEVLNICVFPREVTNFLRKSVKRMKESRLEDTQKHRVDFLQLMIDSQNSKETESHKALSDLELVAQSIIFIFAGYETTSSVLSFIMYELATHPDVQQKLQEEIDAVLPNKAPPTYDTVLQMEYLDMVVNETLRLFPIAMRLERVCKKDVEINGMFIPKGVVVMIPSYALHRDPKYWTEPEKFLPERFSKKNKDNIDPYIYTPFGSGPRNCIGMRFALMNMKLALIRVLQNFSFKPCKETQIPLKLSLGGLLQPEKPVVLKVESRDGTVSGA

[7] = Induction of 16.8 mM glucose-stimulated insulin secretion in ICR mouse primary pancreatic islets assessed per protein at 10 uM after 1 hr by ELISA (reference value: 1.8 +/- 0.6 ng/ml); format: functional, Pancreatic islet
[8] = test system: Mus musculus; assay: Antidiabetic activity in ICR mouse assessed as blood glucose levels at 50 mg/kg, po administered 1 hr prior to glucose challenge measured at 60 mins post glucose challenge (reference value: 175.8 +/- 25 mg/dl); format: functional
[9] = molecular target: T3, CYP1A2 (Homo sapiens, UniProt P05177); assay: Inhibition of CYP1A2 in human liver microsomes at 5 uM using phenacetin as substrate by LC-MS/MS analysis relative to control; format: ADME; settings: probe phenacetin
T3 sequence (P05177 whole entry): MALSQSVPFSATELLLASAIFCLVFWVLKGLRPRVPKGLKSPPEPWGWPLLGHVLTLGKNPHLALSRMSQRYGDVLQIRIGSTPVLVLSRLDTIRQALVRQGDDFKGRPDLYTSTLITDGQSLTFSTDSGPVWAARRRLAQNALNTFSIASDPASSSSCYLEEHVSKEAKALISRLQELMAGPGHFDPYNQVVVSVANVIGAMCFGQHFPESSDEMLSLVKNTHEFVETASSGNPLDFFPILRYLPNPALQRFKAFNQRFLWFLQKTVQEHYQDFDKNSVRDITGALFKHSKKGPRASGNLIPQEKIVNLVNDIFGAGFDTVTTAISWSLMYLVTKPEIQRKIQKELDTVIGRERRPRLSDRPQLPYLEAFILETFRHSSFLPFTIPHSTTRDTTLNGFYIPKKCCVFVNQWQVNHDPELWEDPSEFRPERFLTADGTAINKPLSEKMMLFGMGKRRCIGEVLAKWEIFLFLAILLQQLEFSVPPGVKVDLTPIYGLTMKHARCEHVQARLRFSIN

[10] = test system: Mus musculus; assay: Antidiabetic activity in ICR mouse assessed as blood glucose levels at 50 mg/kg, po administered 1 hr prior to glucose challenge measured at 30 mins post glucose challenge (reference value: 227.6 +/- 18.7 mg/dl); format: functional
[11] = molecular target: CYP2C9 (Homo sapiens, UniProt P11712); assay: Inhibition of CYP2C9 in human liver microsomes at 5 uM using diclofenac sodium as substrate by LC-MS/MS analysis relative to control; format: ADME; settings: probe diclofenac sodium
Sequence of CYP2C9 (P11712 whole entry): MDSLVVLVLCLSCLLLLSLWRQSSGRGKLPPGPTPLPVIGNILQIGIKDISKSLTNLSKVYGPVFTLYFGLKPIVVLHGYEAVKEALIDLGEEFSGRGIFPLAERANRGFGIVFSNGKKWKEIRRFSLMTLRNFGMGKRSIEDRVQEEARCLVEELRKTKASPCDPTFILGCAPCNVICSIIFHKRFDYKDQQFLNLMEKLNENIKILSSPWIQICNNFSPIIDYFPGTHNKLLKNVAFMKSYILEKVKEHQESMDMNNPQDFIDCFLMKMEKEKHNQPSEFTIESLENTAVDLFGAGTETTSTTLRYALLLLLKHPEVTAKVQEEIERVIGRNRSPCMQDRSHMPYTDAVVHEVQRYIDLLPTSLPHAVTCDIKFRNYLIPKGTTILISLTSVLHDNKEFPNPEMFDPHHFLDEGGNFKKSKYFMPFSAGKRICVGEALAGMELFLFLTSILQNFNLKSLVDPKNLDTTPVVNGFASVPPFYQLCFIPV

[12] = molecular target: T2, CYP2D6; assay: Inhibition of CYP2D6 in human liver microsomes at 2 uM using dextromethorphan as substrate by LC-MS/MS analysis relative to control; settings: probe dextromethorphan
[13] = test system: Mus musculus; assay: Antidiabetic activity in ICR mouse assessed as reduction of blood glucose AUC at 50 mg/kg, po administered 1 hr prior to glucose challenge measured after 120 mins post glucose challenge relative to control; format: functional; set-up: scale not given: the % may be the effect or the level left
[14] = molecular target: T3, CYP1A2; assay: Inhibition of CYP1A2 in human liver microsomes at 10 uM using phenacetin as substrate by LC-MS/MS analysis relative to control; format: ADME; settings: probe phenacetin

T1 sequence (O14842 whole entry, the tested form may be a part): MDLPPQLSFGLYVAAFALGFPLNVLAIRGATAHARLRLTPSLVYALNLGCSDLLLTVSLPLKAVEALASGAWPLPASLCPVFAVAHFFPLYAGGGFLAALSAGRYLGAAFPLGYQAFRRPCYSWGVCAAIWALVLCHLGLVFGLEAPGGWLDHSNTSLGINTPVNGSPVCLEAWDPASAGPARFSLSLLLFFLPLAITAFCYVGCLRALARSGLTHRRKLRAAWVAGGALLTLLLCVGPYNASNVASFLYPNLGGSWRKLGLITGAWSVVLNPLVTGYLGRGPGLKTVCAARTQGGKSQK

Activity [1]: 20.4%
Compound: O=C(O)C[C@@H]1COc2cc(OCc3cccc(-c4ccc5c(c4)CN(C(=O)Cc4ccccc4)CC5)c3)ccc21

EC50 [2]: 5.4 µM
Activity [1]: 89.4%
Compound: O=C(O)C[C@@H]1COc2cc(OCc3cccc(-c4cccc5c4CCN(Cc4ccccc4)C5)c3)ccc21

inhibition at 5 µM [3]: 39.5%
EC50 [2]: 0.8 µM
Activity [1]: 108%
inhibition at 5 µM [6]: 27.6%
inhibition at 5 µM [9]: 25.7%
inhibition at 5 µM [11]: 3.94%
Compound: Cl.O=C(O)C[C@@H]1COc2cc(OCc3cccc(-c4ccc5c(c4)CN(Cc4ccccc4)CC5)c3)ccc21
AUC [4]: 2.81e+06 ng·h/mL
Activity [5]: 58 mg/dL
Activity [7]: 2.8 ng/mL
Activity [8]: 172.7 mg/dL
Activity [10]: 214.1 mg/dL

Compound: C=C[C@H]1C[N@@]2CC[C@H]1C[C@@H]2[C@@H](O)c1ccnc2ccc(OC)cc12 [QUINIDINE]
inhibition at 2 µM [12]: 93.3%

Activity [1]: 23.8%
Compound: CC(C)(CC(=O)O)c1ccc(OCc2cccc(-c3ccc4c(c3)CN(Cc3ccccc3)C4)c2)cc1

Activity [1]: 17.8%
Compound: O=C(O)COc1ccc(OCc2cccc(-c3ccc4c(c3)CCN(Cc3ccccc3)C4)c2)cc1

EC50 [2]: 3 µM
Activity [1]: 89.8%
Compound: O=C(O)C[C@@H]1COc2cc(OCc3cccc(-c4ccc5c(c4)CN(Cc4ccccc4)C5)c3)ccc21

inhibition at 5 µM [3]: 23.6%
EC50 [2]: 1.2 µM
Activity [1]: 136%
inhibition at 5 µM [6]: 30.7%
inhibition at 5 µM [9]: 20.9%
inhibition at 5 µM [11]: 16.2%
Compound: Cl.O=C(O)C[C@@H]1COc2cc(OCc3cccc(-c4ccc5c(c4)CCN(Cc4ccccc4)C5)c3)ccc21
Activity [5]: 49.9 mg/dL
Activity [13]: 13.8%
Activity [7]: 2.9 ng/mL
Activity [8]: 150.2 mg/dL
Activity [10]: 196.2 mg/dL

Activity [2]: 46%
Compound: O=C(O)C[C@@H]1COc2cc(OCc3cccc(-c4ccc5c(c4)CN(C(=O)c4ccccc4)CC5)c3)ccc21

Activity [1]: 28.8%
Compound: O=C(O)COc1ccc(OCc2cccc(-c3cccc4c3CCN(Cc3ccccc3)C4)c2)cc1

inhibition at 5 µM [3]: 23.2%
inhibition at 5 µM [6]: 34%
inhibition at 5 µM [9]: 28%
inhibition at 5 µM [11]: 21%
Compound: Cc1cc(OCCCS(C)(=O)=O)cc(C)c1-c1cccc(COc2ccc3c(c2)OC[C@H]3CC(=O)O)c1
AUC [4]: 2.07e+06 ng·h/mL
Activity [5]: 49 mg/dL
Activity [7]: 2.1 ng/mL
Activity [8]: 120 mg/dL
Activity [10]: 155.2 mg/dL

Activity [1]: 39.8%
Compound: O=C(O)C[C@@H]1COc2cc(OCc3cccc(-c4ccc5c(c4)CCN(C(=O)c4ccccc4)C5)c3)ccc21

Activity [1]: 4.6%
Compound: O=C(O)COc1ccc(OCc2cccc(-c3ccc4c(c3)CN(Cc3ccccc3)CC4)c2)cc1

inhibition at 5 µM [11]: 94.9%
Compound: Nc1ccc(S(=O)(=O)Nc2ccnn2-c2ccccc2)cc1 [SULFAPHENAZOLE]

Activity [1]: 54.8%
Compound: O=C(O)C[C@@H]1COc2cc(OCc3cccc(-c4cccc5c4CCN(CCc4ccccc4)C5)c3)ccc21

inhibition at 10 µM [14]: 71.4%
Compound: Cc1nc2c([nH]1)c(=O)n(C)c(=O)n2Cc1ccco1 [FURAFYLLINE]

Activity [1]: 18.9%
Compound: O=C(O)COc1ccc(OCc2cccc(-c3ccc4c(c3)CN(Cc3ccccc3)C4)c2)cc1

Activity [1]: 77%
Compound: O=C(O)C[C@@H]1COc2cc(OCc3cccc(-c4ccc5c(c4)CN(CCc4ccccc4)C5)c3)ccc21

Activity [1]: 22.8%
Compound: CC(C)(CC(=O)O)c1ccc(OCc2cccc(-c3ccc4c(c3)CN(Cc3ccccc3)CC4)c2)cc1

Activity [1]: 60.8%
Compound: O=C(O)C[C@@H]1COc2cc(OCc3cccc(-c4ccc5c(c4)CN(C(=O)c4ccccc4)C5)c3)ccc21

Activity [1]: 31.6%
Compound: O=C(O)C[C@@H]1COc2cc(OCc3cccc(-c4ccc5c(c4)CCN(C(=O)Cc4ccccc4)C5)c3)ccc21

Activity [1]: 43.6%
Compound: CC(=O)N1CCc2c(cccc2-c2cccc(COc3ccc4c(c3)OC[C@H]4CC(=O)O)c2)C1

EC50 [2]: 4 µM
Activity [1]: 85%
Compound: O=C(O)C[C@@H]1COc2cc(OCc3cccc(-c4ccc5c(c4)CCN(CCc4ccccc4)C5)c3)ccc21

Activity [1]: 7.8%
Compound: CCN1CCc2c(cccc2-c2cccc(COc3ccc4c(c3)OC[C@H]4CC(=O)O)c2)C1

Activity [1]: 36.8%
Compound: CC(=O)N1Cc2ccc(-c3cccc(COc4ccc5c(c4)OC[C@H]5CC(=O)O)c3)cc2C1

EC50 [2]: 0.8 µM
Activity [1]: 90%
Compound: CC(C)(CC(=O)O)c1ccc(OCc2cccc(-c3cccc4c3CCN(Cc3ccccc3)C4)c2)cc1

EC50 [2]: 2.2 µM
Activity [1]: 84.2%
Compound: O=C(O)C[C@@H]1COc2cc(OCc3cccc(-c4cccc5c4CCN(C(=O)c4ccccc4)C5)c3)ccc21

Activity [1]: 5%
Compound: CC(=O)N1CCc2cc(-c3cccc(COc4ccc5c(c4)OC[C@H]5CC(=O)O)c3)ccc2C1

Activity [1]: 34.8%
Compound: O=C(O)C[C@@H]1COc2cc(OCc3cccc(-c4ccc5c(c4)CN(C(=O)Cc4ccccc4)C5)c3)ccc21

Activity [1]: 58.6%
Compound: CC(C)(CC(=O)O)c1ccc(OCc2cccc(-c3ccc4c(c3)CCN(Cc3ccccc3)C4)c2)cc1
